# In patent publication US11649212B2, “Inhibitors of indoleamine 2,3-dioxygenase and methods of their use” (BRISTOL-MYERS SQUIBB COMPANY, priority 2017, dated 2023):
# Biological target: T1, Indoleamine 2,3-Dioxygenase (IDO) (Homo sapiens, UniProt P14902)
# T1 construct: endogenous in cells; host or cells: HeLa (ATCC CCL-2), stimulated with IFNγ 25 ng/mL
# Test: HeLa cell-based indoleamine 2,3-dioxygenase (IDO) assay (kynurenine production)
# Conditions: HeLa cells, IFNγ 25 ng/mL, 48 hour incubation, kynurenine absorbance at 480 nm
# Protocol: Assessment of Inhibitor Activity in HeLa Cell-Based Indoleamine 2,3-Dioxygenase (IDO) Assay:
# HeLa (ATCC® CCL-2) cells were obtained from the ATCC® and cultured in Dulbecco's Modified Eagle Medium supplemented with 4.5 g/L glucose, […] (#10-013-CV, Corning), 2 mM L-alanyl-L-glutamine dipeptide (#35050-061, Gibco), 100U/mL penicillin, 100 μg/mL streptomycin (#SV30010, HyClone) and 10% fetal bovine serum (#SH30071.03 HyClone). Cells were maintained in a humidified incubator at 37° C. in 5% CO2.
# IDO activity was assessed as a function of kynurenine production as follows: HeLa cells were seeded in a 96-well culture plate at a density of 5,000 cells/well and allowed to equilibrate overnight. After 24 hours, the media was aspirated and replaced with media containing IFNγ (#285-IF/CF, R&D Systems) at a final concentration of 25 ng/mL. A serial dilution of each test compound was added to the cells in a total volume of 200 μL of culture medium. After a further 48 hour incubation, 170 μL of supernatant was transferred from each well to a fresh 96-well plate. 12.1 μL of 6.1N trichloroacetic acid (#T0699, Sigma-Aldrich) was added to each well and mixed, followed by incubation at 65° C. for 20 minutes to hydrolyze N-formylkynurenine, the product of indoleamine 2,3-dioxygenase, to kynurenine. The reaction mixture was then centrifuged for 10 mins at 500×g to sediment the precipitate. 100 μL of the supernatant was transferred from each well to a fresh 96-well plate. 100 μl of 2% (w/v) p-dimethylaminobenzaldehyde (#15647-7, Sigma-Aldrich) in acetic acid (#A6283, Sigma-Aldrich) was added to each well mixed and incubated at room temperature for 20 mins. Kynurenine concentrations were determined by measuring absorbance at 480 nm and calibrating against an L-kynurenine (#K8625, Sigma-Aldrich) standard curve using a SPECTRAMAX® M2e microplate reader (Molecular Devices). The percentage activity at each inhibitor concentration was determined and IC50 values assessed using nonlinear regression.
# T1 sequence (P14902 whole entry): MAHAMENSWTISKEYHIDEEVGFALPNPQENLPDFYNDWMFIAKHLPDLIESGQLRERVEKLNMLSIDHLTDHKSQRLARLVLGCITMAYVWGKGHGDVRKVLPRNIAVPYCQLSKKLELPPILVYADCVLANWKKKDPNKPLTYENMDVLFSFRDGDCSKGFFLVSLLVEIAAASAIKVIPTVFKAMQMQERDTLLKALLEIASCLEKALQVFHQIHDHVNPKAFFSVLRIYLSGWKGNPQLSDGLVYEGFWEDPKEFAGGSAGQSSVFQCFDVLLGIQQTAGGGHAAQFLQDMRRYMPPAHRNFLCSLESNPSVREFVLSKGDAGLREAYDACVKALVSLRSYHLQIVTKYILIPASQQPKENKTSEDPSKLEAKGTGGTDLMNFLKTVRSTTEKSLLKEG
row,SMILES,IC50
1,"CCC(C(=O)NC1[C@H]2C[C@@H]3C[C@@H](C[C@H]1C3)C2)C1CCN(Cc2cccc(C(F)(F)F)n2)CC1 (single isomer, unassigned) [Example 21, N-(Adamantan-2-yl)-2-(1-((6-(trifluoromethyl)pyridin-2-yl)methyl)piperidin-4-yl)butanamide]",20 nM
2,"CCC(C(=O)NC1[C@H]2C[C@@H]3C[C@@H](C[C@H]1C3)C2)C1CCN(Cc2cccc(C(F)(F)F)n2)CC1 (single isomer, unassigned) [Example 22, N-(Adamantan-2-yl)-2-(1-((6-(trifluoromethyl)pyridin-2-yl)methyl)piperidin-4-yl)butanamide]",1000 nM
3,"C[C@@H](NC(=O)C12CCC(Cl)(CC1)CC2)[C@H]1CC[C@@H](c2ccnc3ccc(F)cc32)CC1 [Example 1, 4-chloro-N—((R)-1-((cis)-4-(6-fluoroquinolin-4-yl)cyclohexyl)ethyl)bicyclo [2.2.2]octane-1-carboxamide]",24 nM
4,"C[C@@H](NC(=O)C1CCN(c2ccc(F)cc2)CC1)[C@H]1CC[C@@H](c2ccnc3ccc(F)cc32)CC1 [Example 2, 1-(4-Fluorophenyl)-N—((R)-1-((1s,4S)-4-(6-fluoroquinolin-4-yl)cyclohexyl)ethyl) piperidine-4-carboxamide]",22 nM
5,"C[C@@H](NC(=O)N1CCN(c2ccccc2)CC1)[C@H]1CC[C@@H](c2ccnc3ccc(F)cc32)CC1 [Example 4, N—((R)-1-((1s,4 S)-4-(6-Fluoroquinolin-4-yl)cyclohexyl)ethyl)-4-phenylpiperazine-1-carboxamide]",18 nM
6,"C[C@@H](NC(=O)C1CCCCC1)[C@H]1CC[C@@H](c2ccnc3ccc(F)cc32)CC1 [Example 5, N-((R)-1-((1s,4S)-4-(6-fluoroquinolin-4-yl)cyclohexyl)ethyl)cyclohexanecarboxamide]",11 nM
7,"C[C@@H](NC(=O)C1CC(F)(F)C1)[C@H]1CC[C@@H](c2ccnc3ccc(F)cc32)CC1 [Example 7, 3,3-difluoro-N-((R)-1-((1s,4S)-4-(6-fluoroquinolin-4-yl)cyclohexyl)ethyl)cyclobutanecarboxamide]",550 nM
8,"COc1ccc(CN(C(=O)NC2CCCCC2)[C@H]2CC[C@H](c3ccccc3)CC2)cc1 [Example 13, 3-cyclohexyl-1-(4-methoxybenzyl)-1-((1r,4r)-4-phenylcyclohexyl)urea]",66 nM
9,"CC1(CC(=O)NC23CC4CC(CC(C4)C2)C3)CCN(c2ccnc3ccc(F)cc23)CC1 [Example 16, N-((3s,5s,7s)-Adamantan-1-yl)-2-(1-(6-fluoroquinolin-4-yl)-4-methylpiperidin-4-yl)acetamide]",31 nM
10,"C[C@@H](C(=O)NC12CC3CC(C)(CC(C)(C3)C1)C2)[C@H]1CC[C@@H](c2ccnc3ccc(F)cc32)CC1 [Example 23, (cis)-(2R)—N-(3,5-dimethyladamantan-1-yl)-2-(4-(6-fluoroquinolin-4-yl)cyclohexyl)propanamide]",14 nM

# Biological target: T2, human IDO1 (Homo sapiens, UniProt P14902)
# T2 construct: expressed in transfected cells
# T2 sequence (P14902 whole entry): as above
# Test: IDO inhibition assay in human IDO1/HEK293 cells
# Format: cell-based
# Conditions: HEK293 cells stably expressing human IDO1, 20 hours incubation, absorbance at 490 nm; read-out: IDO1 HEK Human IC50
# Protocol: HEK293 cells were transfected with a pCDNA-based mammalian expression vector harboring human IDO1 cDNA (NM 002164.2) by electroporation. They were cultured in medium (DMEM with 10% FBS) containing 1 mg/ml G418 for two weeks. Clones of HEK293 cells that stably expressed human IDO1 protein were selected and expanded for IDO inhibition assay.
# The human IDO1/HEK293 cells were seeded at 10,000 cells per 50 μL per well with RPMI/phenol red free media contains 10% FBS in a 384-well black wall clear bottom tissue culture plate (Matrix Technologies LLC) 100 nL of certain concentration of compound was then added to each well using ECHO liquid handling systems. The cells were incubated for 20 hours in 37° C. incubator with 5% CO2.
# The compound treatments were stopped by adding trichloroacetic acid (Sigma-Aldrich) to a final concentration at 0.2%. The cell plate was further incubated at 50° C. for 30 minute. The equal volume supernatant (20 μL) and 0.2% (w/v) Ehrlich reagent (4-dimethylaminobenzaldehyde, Sigma-Aldrich) in glacial acetic acid were mixed in a new clear bottom 384-well plate. This plate was then incubated at room temperature for 30 minute. The absorbance at 490 nm was measured on Envision plate reader.
# Compound IC50 values were calculated using the counts of 500 nM of a reference standard treatment as one hundred percent inhibition, and counts of no compound but DMSO treatment as zero percent inhibition.
row,SMILES,IC50
1,"CCCC(C(=O)NC12CC3CC(CC(C3)C1)C2)N1CCN(c2ccnc3ccc(F)cc23)CC1 (single isomer, unassigned) [Example 19]",1800 nM
2,"CCCC(C(=O)NC12CC3CC(CC(C3)C1)C2)N1CCN(c2ccnc3ccc(F)cc23)CC1 (single isomer, unassigned) [Example 20]",1900 nM
3,"COc1ccc(N2CCC(C(=O)N[C@H](C)[C@H]3CC[C@@H](c4ccnc5ccc(F)cc54)CC3)CC2)cc1 [Example 3, N—((R)-1-((1s,4S)-4-(6-Fluoroquinolin-4-yl)cyclohexyl)ethyl)-1-(4-methoxyphenyl)piperidine-4-carboxamide]",800 nM
4,"C[C@@H](NC(=O)C1CC1)[C@H]1CC[C@@H](c2ccnc3ccc(F)cc32)CC1 [Example 6, N-((R)-1-((1s,4S)-4-(6-fluoroquinolin-4-yl)cyclohexyl)ethyl)cyclopropanecarboxamide]",810 nM
5,"C[C@@H](NC(=O)C1CC(F)C1)C1CCC(c2ccnc3ccc(F)cc23)CC1 (stereo partly drawn) [Example 8, (1r,3R)-3-fluoro-N-((R)-1-((1s,4S)-4-(6-fluoroquinolin-4-yl)cyclohexyl)ethyl)cyclobutanecarboxamide]",570 nM
6,"C[C@@H](NC(=O)[C@H]1C[C@@H](F)C1)[C@H]1CC[C@@H](c2ccnc3ccc(F)cc32)CC1 [Example 9, (1s,3S)-3-fluoro-N-((R)-1-((1s,4S)-4-(6-fluoroquinolin-4-yl)cyclohexyl)ethyl)cyclobutanecarboxamide]",620 nM
7,"C[C@@H](NC(=O)C1CCC1)[C@H]1CC[C@@H](c2ccnc3ccc(F)cc32)CC1 [Example 10, N-((R)-1-((1s,4S)-4-(6-fluoroquinolin-4-yl)cyclohexyl)ethyl) cyclobutanecarboxamide]",190 nM
8,"C[C@H](NC(=O)C1CCC(O)CC1)C1CCC(c2ccnc3ccc(F)cc23)CC1 (stereo partly drawn) [Example 11, (1s,4S)-N-((R)-1-((1s,4S)-4-(6-fluoroquinolin-4-yl)cyclohexyl)ethyl)-4-hydroxycyclohexane carboxamide]",750 nM
9,"C[C@@H](NC(=O)[C@H]1CC[C@H](O)CC1)[C@H]1CC[C@@H](c2ccnc3ccc(F)cc32)CC1 [Example 12, (1r,4R)-N-((R)-1-((1s,4S)-4-(6-fluoroquinolin-4-yl)cyclohexyl)ethyl)-4-hydroxycyclohexane carboxamide]",170 nM
10,"COc1ccc(CN(C(=O)NC2CCCC2)[C@H]2CC[C@H](c3ccccc3)CC2)cc1 [Example 14, 3-cyclopentyl-1-(4-methoxybenzyl)-1-((1r,4r)-4-phenylcyclohexyl)-urea]",120 nM
11,"COc1ccc(CN(C(=O)NC2CC2)[C@H]2CC[C@H](c3ccccc3)CC2)cc1 [Example 15, 3-cyclopropyl-1-(4-methoxybenzyl)-1-((1r,4r)-4-phenylcyclohexyl)-urea]",240 nM
12,"CC1(CC(=O)N[C@@]23C[C@@H]4C[C@@H](C[C@@](O)(C4)C2)C3)CCN(c2ccnc3ccc(F)cc23)CC1 [Example 17, 2-(1-(6-Fluoroquinolin-4-yl)-4-methylpiperidin-4-yl)-N-((1r,3s,5R,7S)-3-hydroxyadamantan-1-yl)acetamide]",390 nM
13,"CC1(CC(=O)NC23CC4CC(CC(C4)C2)C3)CCN(c2ccnc(C(F)(F)F)c2)CC1 [Example 18, N-((3 s,5 s, 7 s)-Adamantan-1-yl)-2-(4-methyl-1-(2-(trifluoromethyl)pyridin-4-yl)piperidin-4-yl)acetamide]",180 nM
